Calls of active or inactive are those of the source. The calls are words filed in the database; no cut-off is given here.
Assays:
[1] = tested on: MDA-MB-435; assay: Antitumor activity against human MDA-MB-435 cells after 48 hrs; type: functional; conditions: MDA-MB-435, 48 h
[2] = Antitumor activity against human SF295 cells after 48 hrs; type: functional; conditions: SF-295, 48 h
[3] = Antitumor activity against human HOP92 cells after 48 hrs; type: functional; conditions: HOP-92, 48 h
[4] = tested on: HCT-15; assay: Antitumor activity against human HCT15 cells after 48 hrs; type: functional; conditions: HCT-15, 48 h
[5] = tested on: NCI-H23; assay: Antitumor activity against human NCI-H23 cells after 48 hrs; type: functional; conditions: NCI-H23, 48 h
[6] = tested on: U-251; assay: Antitumor activity against human U251 cells after 48 hrs; type: functional; conditions: U-251, 48 h
[7] = tested on: SK-MEL-5; assay: Antitumor activity against human SK-MEL-5 cells after 48 hrs; type: functional; conditions: SK-MEL-5, 48 h
[8] = tested on: HOP-62; assay: Antitumor activity against human HOP62 cells after 48 hrs; type: functional; conditions: HOP-62, 48 h
[9] = tested on: UO-31; assay: Antitumor activity against human UO31 cells after 48 hrs; type: functional; conditions: UO-31, 48 h
[10] = tested on: NCI-H226; assay: Antitumor activity against human NCI-H226 cells after 48 hrs; type: functional; conditions: NCI-H226, 48 h
[11] = tested on: SNB-75; assay: Antitumor activity against human SNB75 cells after 48 hrs; type: functional; conditions: SNB-75, 48 h
[12] = tested on: DU-145; assay: Antitumor activity against human DU145 cells after 48 hrs; type: functional; conditions: DU-145, 48 h
[13] = tested on: K562; assay: Antitumor activity against human K562 cells after 48 hrs; type: functional; conditions: K562, 48 h
[14] = tested on: SK-MEL-28; assay: Antitumor activity against human SK-MEL-28 cells after 48 hrs; type: functional; conditions: SK-MEL-28, 48 h
[15] = tested on: OVCAR-5; assay: Antitumor activity against human OVCAR5 cells after 48 hrs; type: functional; conditions: OVCAR-5, 48 h
[16] = tested on: MDA-MB-231; assay: Antitumor activity against human MDA-MB-231 cells after 48 hrs; type: functional; conditions: MDA-MB-231, 48 h
[17] = tested on: M14; assay: Antitumor activity against human M14 cells after 48 hrs; type: functional; conditions: M14, 48 h
[18] = Antitumor activity against human HCC2998 cells after 48 hrs; type: functional; conditions: HCC 2998, 48 h
[19] = Antitumor activity against human MOLT4 cells after 48 hrs; type: functional; conditions: MOLT-4, 48 h
[20] = tested on: HT-29; assay: Antitumor activity against human HT-29 cells after 48 hrs; type: functional; conditions: HT-29, 48 h
[21] = tested on: NCI-H522; assay: Antitumor activity against human NCI-H522 cells after 48 hrs; type: functional; conditions: NCI-H522, 48 h
[22] = Antitumor activity against human SF539 cells after 48 hrs; type: functional; conditions: SF-539, 48 h
[23] = tested on: ACHN; assay: Antitumor activity against human ACHN cells after 48 hrs; type: functional
[24] = tested on: SR; assay: Antitumor activity against human SR cells after 48 hrs; type: functional
[25] = tested on: SW-620; assay: Antitumor activity against human SW620 cells after 48 hrs; type: functional; conditions: SW-620, 48 h
[26] = Antitumor activity against human BT549 cells after 48 hrs; type: functional; conditions: BT-549, 48 h
[27] = tested on: A549; assay: Antitumor activity against human A549 cells after 48 hrs; type: functional; conditions: A549, 48 h
[28] = tested on: EKVX; assay: Antitumor activity against human EKVX cells after 48 hrs; type: functional, cell-based
[29] = tested on: SN12C; assay: Antitumor activity against human SN12C cells after 48 hrs; type: functional
[30] = tested on: MDA-MB-468; assay: Antitumor activity against human MDA-MB-468 cells after 48 hrs; type: functional; conditions: MDA-MB-468, 48 h
[31] = tested on: NCI-H460; assay: Antitumor activity against human NCI-H460 cells after 48 hrs; type: functional; conditions: NCI-H460, 48 h
[32] = tested on: MCF7; assay: Antitumor activity against human MCF7 cells after 48 hrs; type: functional; conditions: MCF7, 48 h
[33] = tested on: IGROV-1; assay: Antitumor activity against human IGROV1 cells after 48 hrs; type: functional; conditions: IGROV-1, 48 h
[34] = tested on: SK-MEL-2; assay: Antitumor activity against human SK-MEL-2 cells after 48 hrs; type: functional; conditions: SK-MEL-2, 48 h
[35] = tested on: PC-3; assay: Antitumor activity against human PC3 cells after 48 hrs; type: functional; conditions: PC-3, 48 h
[36] = tested on: T47D; assay: Antitumor activity against human T47D cells after 48 hrs; type: functional
[37] = tested on: SK-OV-3; assay: Antitumor activity against human SKOV3 cells after 48 hrs; type: functional; conditions: SK-OV-3, 48 h
[38] = tested on: CCRF-CEM; assay: Antitumor activity against human CCRF-CEM cells after 48 hrs; type: functional
[39] = Antitumor activity against human COLO205 cells after 48 hrs; type: functional; conditions: COLO 205, 48 h
[40] = tested on: OVCAR-3; assay: Antitumor activity against human OVCAR3 cells after 48 hrs; type: functional; conditions: OVCAR-3, 48 h
[41] = tested on: SNB-19; assay: Antitumor activity against human SNB19 cells after 48 hrs; type: functional; conditions: SNB-19, 48 h
[42] = tested on: OVCAR-8; assay: Antitumor activity against human OVCAR8 cells after 48 hrs; type: functional; conditions: OVCAR-8, 48 h
[43] = tested on: SF-268; assay: Antitumor activity against human SF268 cells after 48 hrs; type: functional; conditions: SF-268, 48 h
[44] = Antitumor activity against human RPMI8226 cells after 48 hrs; type: functional; conditions: RPMI-8226, 48 h
[45] = tested on: 786-0; assay: Antitumor activity against human 786-0 cells after 48 hrs; type: functional; conditions: 786-0, 48 h
[46] = Antitumor activity against human LOXIMVI cells after 48 hrs; type: functional; conditions: LOX IMVI
[47] = tested on: HL-60(TB); assay: Antitumor activity against human HL-60(TB) cells after 48 hrs; type: functional; conditions: HL-60, 48 h
[48] = tested on: CAKI-1; assay: Antitumor activity against human Caki1 cells after 48 hrs; type: functional; conditions: CAKI-1, 48 h
[49] = tested on: HCT-116; assay: Antitumor activity against human HCT116 cells after 48 hrs; type: functional; conditions: HCT-116, 48 h
[50] = Antitumor activity against human RXF393 cells after 48 hrs; type: functional; conditions: RXF 393, 48 h
[51] = Antitumor activity against human NCI-ADR-RES cells after 48 hrs; type: functional
[52] = tested on: A498; assay: Antitumor activity against human A498 cells after 48 hrs; type: functional; conditions: A498, 48 h
[53] = tested on: KM12; assay: Antitumor activity against human KM12 cells after 48 hrs; type: functional; conditions: KM12, 48 h
[54] = tested on: NCI-H322M; assay: Antitumor activity against human NCI-H322M cells after 48 hrs; type: functional
[55] = tested on: UACC-62; assay: Antitumor activity against human UACC62 cells after 48 hrs; type: functional; conditions: UACC-62, 48 h
[56] = tested on: Malme-3M; assay: Antitumor activity against human MALME-3M cells after 48 hrs; type: functional
[57] = Antitumor activity against human Hs578T cells after 48 hrs; type: functional; conditions: Hs-578T
[58] = tested on: TK-10; assay: Antitumor activity against human TK10 cells after 48 hrs; type: functional; conditions: TK-10, 48 h
[59] = tested on: OVCAR-4; assay: Antitumor activity against human OVCAR4 cells after 48 hrs; type: functional; conditions: OVCAR-4, 48 h

COc1cc(OC)cc(/C(C#N)=C/c2ccc3ccccc3n2)c1
GI50 [1]: 147 nM
GI50 [2]: 341 nM
GI50 [3]: 542 nM
GI50 [4]: 409 nM
GI50 [5]: 983 nM
GI50 [6]: 425 nM
GI50 [7]: 406 nM
GI50 [8]: 959 nM
GI50 [9]: 573 nM
GI50 [10]: 10.8 µM
GI50 [11]: 311 nM
GI50 [12]: 801 nM
GI50 [13]: 353 nM
GI50 [14]: 896 nM
GI50 [15]: 716 nM
GI50 [16]: 1020 nM
GI50 [17]: 360 nM
GI50 [18]: 1420 nM
GI50 [19]: 419 nM
GI50 [20]: 367 nM
GI50 [21]: 94 nM
GI50 [22]: 286 nM
GI50 [23]: 773 nM
GI50 [24]: inactive
GI50 [25]: 357 nM
GI50 [26]: 342 nM
GI50 [27]: 649 nM
GI50 [28]: inactive
GI50 [29]: 661 nM
GI50 [30]: 1500 nM
GI50 [31]: 339 nM
GI50 [32]: 537 nM
GI50 [33]: 958 nM
GI50 [34]: 522 nM
GI50 [35]: 584 nM
GI50 [36]: 1230 nM
GI50 [37]: 804 nM
GI50 [38]: 332 nM
GI50 [39]: 374 nM
GI50 [40]: 309 nM
GI50 [41]: 728 nM
GI50 [42]: 659 nM
GI50 [43]: 476 nM
GI50 [44]: 433 nM
GI50 [45]: 501 nM
GI50 [46]: 610 nM
GI50 [47]: 270 nM
GI50 [48]: 318 nM
GI50 [49]: 416 nM
GI50 [50]: 334 nM
GI50 [51]: 283 nM
GI50 [52]: 275 nM
GI50 [53]: 425 nM
GI50 [54]: 3.02 µM
GI50 [55]: 449 nM
GI50 [56]: 348 nM
GI50 [57]: 700 nM
GI50 [58]: 3.28 µM
GI50 [59]: 788 nM

Source: ChEMBL document CHEMBL3585283, “Synthesis and evaluation of a series of quinolinyl trans-cyanostilbene analogs as anticancer agents” (2014)
